Tests used:
powdery mildew = assay: Fungicidal activity against powdery mildew on inoculated cucumber plants (disease index); type: in vivo, Sphaerotheca fuliginia; conditions: cucumbers, letters in the cell = significance groups (P = 0.05)
Procedure: Cucumbers sensitive to powdery mildew were sprouted in trays and then transferred to pots of 16 cm diameter, two plants per pot. They were kept in a hot-house at 18° C.-25° C. at a relative humidity of 60%-70%. The cucumber plants were contaminated with powdery mildew collected from pumpkin leaves by passing the contaminated leaf over the leaves of the plants to be tested and the plants then sprayed with water. First treatment was with the first appearance of the disease, by spraying until dripping. All treatments were at a concentration of 0.03%, except for the commercial Myclobutanal (a systemic fungicide of Rohm and Haas Co.), where a concentration of 0.006% was used. The status of the disease was determined by three different people. The experiment was conducted in blocks, at random, with repetitions. Four blocks of four repetitions of ten treatments (total 160 pots) at three evaluation periods.

coffee berry disease = assay: Activity against coffee berry disease (inhibition of sporulation on colonized branch sections); type: in vivo, Colletotrichum coffeanum; conditions: for Per Cent Active Ingredient for 80% Inhibition: 80% inhibition of sporulation, by linear regression of dose response curves, three days incubation
Procedure: The zinc complex of prochloraz was tested for its activity against coffee berry disease as follows:
Approximately 3.5 mm sections of colonized branches are washed in a solution of Teepol or similar wetting agent to remove any initial spore load. Sections are laid on moistened cellosine wadding in plastic boxes, 12 sections per box. Three boxes are sprayed with each concentration of the candidate material, closed and incubated for three days. After incubation the spores are removed by vigorous shaking of each of the 12 twigs in 10 ml water and are counted, using a haemocytometer slide. The sections of the branch are measured and their volume taken by displacement. The parameters measured were concentration of the formulation and expressed as percent active ingredient (A.I.) and percent inhibition of sporulation. The inhibition of sporulation was expressed in relation to the sporulation of unsprayed control and folpet as the standard fungicide. Each determination was done in triplicate and repeated at least three times. The dose response curves were analyzed by linear regression and the different formulations were compared at the 80% inhibition point.

crops = conditions: free, non-complexed prochloraz vs metal complexes; susceptible crops; cited from earlier work
[1] = 0.006% spray (commercial standard), key 0 = clean to 5 = over 50% sick
[2] = 0.03% spray, key 0 = clean, 1 = 10%-20% sick, 2 = 20%-30%, 3 = 30%-40%, 4 = 40%-50%, 5 = over 50% sick

Compound: CCCCC(C#N)(Cn1cncn1)c1ccc(Cl)cc1 (racemic) [Myclobutanol, reference compound]
- Disease Index 7 Days After Treatment (powdery mildew; [1]): 1.34
- Disease Index 14 Days After Treatment (powdery mildew; [1]): 0.81

Compound: O=C1c2ccccc2C(=O)N1SC(Cl)(Cl)Cl [Folpet, reference compound]
- Per Cent Active Ingredient for 80% Inhibition (coffee berry disease): 0.62 Per Cent Active Ingredient

Compound: CCCN(CCOc1c(Cl)cc(Cl)cc1Cl)C(=O)n1ccnc1.CCCN(CCOc1c(Cl)cc(Cl)cc1Cl)C(=O)n1ccnc1.[Cl][Sn][Cl] [SnCl2 complex of Prochloraz, Bis-[1-{N-propyl-N-2-(2,4,6-trichlorophenoxy)-ethyl-carbamoyl}-imidazole]-tin(II) chloride complex]
- Disease Index 14 Days After Treatment (powdery mildew; [2]): 0.78

Compound: CCCN(CCOc1c(Cl)cc(Cl)cc1Cl)C(=O)n1ccnc1.CCCN(CCOc1c(Cl)cc(Cl)cc1Cl)C(=O)n1ccnc1.[Cl][Zn][Cl] [ZnCl2 complex of Prochloraz, Bis-[1-{N-propyl-N-2-(2,4,6-trichlorophenoxy)-ethyl-carbamoyl}-imidazole]-zinc chloride complex]
- Disease Index 7 Days After Treatment (powdery mildew; [2]): 1.63
- Disease Index 14 Days After Treatment (powdery mildew; [2]): 0.94
- Per Cent Active Ingredient for 80% Inhibition (coffee berry disease): 0.09 Per Cent Active Ingredient
- activity against coffee berry disease (in words) (coffee berry disease; especially as compared to known commercial metal complexes): very good activity
- activity against coffee berry disease compared to commercial "Octave" (coffee berry disease; relative to Octave, at 80% inhibition point): more than two times greater

Compound: CCCN(CCOc1c(Cl)cc(Cl)cc1Cl)C(=O)n1ccnc1 [prochloraz, 1-[N-propyl-N-2-(2,4,6-trichlorophenoxy)-ethyl-carbamoyl]-imidazole]
- phytotoxicity (crops): phytotoxic to some crops

Compound: Bis-[1-{N-propyl-N-2-(2,4,6-trichlorophenoxy)-ethyl-carbamoyl}-imidazole]-cobalt (II) chloride complex [CoCl2 complex of Prochloraz]
- Disease Index 7 Days After Treatment (powdery mildew; [2]): 2.06
- Disease Index 14 Days After Treatment (powdery mildew; [2]): 1.38

Source: patent US5206232A, “Fungicidal imidazole complexes” (priority 1990, dated 1993)
